Source: ChEMBL document CHEMBL3407453, “LEADOPT: an automatic tool for structure-based lead optimization, and its application in structural optimizations of VEGFR2 and SYK inhibitors” (Eur J Med Chem, 2015)
Activity calls are given as the source filed them. The rule behind the calls is not given here.

Columns and labels:
[1] = target: T1, Vascular endothelial growth factor receptor 2 (Homo sapiens, UniProt P35968); assay: Inhibition of VEGFR2 (unknown origin) by [33P]radiolabeled method
[2] = target: T2, Tyrosine-protein kinase SYK (Homo sapiens, UniProt P43405); assay: Inhibition of SYK (unknown origin)
[3] = system: HUVEC; assay: Antiangiogenic activity in HUVEC cells assessed as inhibition of cell migration after 18 hrs by wound healing assay; type: functional, cell-based; conditions: Homo sapiens
[4] = system: HUVEC; assay: Antiangiogenic activity in HUVEC cells assessed as inhibition of cell migration at 5 uM after 18 hrs by wound healing assay; type: functional, cell-based; conditions: Homo sapiens
[5] = target: T1, Vascular endothelial growth factor receptor 2; assay: Inhibition of VEGFR2-mediated ERK1/2 phosphorylation in VEGF-stimulated HUVEC cells at 0.01 to 10 uM after 2 hrs by Western blot analysis; type: cell-based
[6] = target: T1, Vascular endothelial growth factor receptor 2; conditions: HUVEC, at 0.01 to 10 µM
Description: Inhibition of VEGFR2 phosphorylation in VEGF-stimulated HUVEC cells at 0.01 to 10 uM after 2 hrs by Western blot analysis

[7] = system: Ramos; assay: Cytotoxicity against human Ramos cells assessed as reduction in cell viability after 72 hrs by MTT assay; type: functional, cell-based
[8] = system: MV4-11; assay: Cytotoxicity against human MV4-11 cells assessed as reduction in cell viability after 72 hrs by MTT assay; type: functional, cell-based; conditions: MV4-11, 72 h
[9] = target: T2, Tyrosine-protein kinase SYK; assay: Inhibition of SYK-mediated FLT3 phosphorylation in human MV4-11 cells at 0.01 to 1 uM after 6 hrs by Western blot analysis; type: cell-based
[10] = target: T2, Tyrosine-protein kinase SYK; assay: Inhibition of SYK-mediated ERK1/2 phosphorylation in human MV4-11 cells at 0.01 to 1 uM after 6 hrs by Western blot analysis; type: cell-based

T1 sequence (P35968 whole entry): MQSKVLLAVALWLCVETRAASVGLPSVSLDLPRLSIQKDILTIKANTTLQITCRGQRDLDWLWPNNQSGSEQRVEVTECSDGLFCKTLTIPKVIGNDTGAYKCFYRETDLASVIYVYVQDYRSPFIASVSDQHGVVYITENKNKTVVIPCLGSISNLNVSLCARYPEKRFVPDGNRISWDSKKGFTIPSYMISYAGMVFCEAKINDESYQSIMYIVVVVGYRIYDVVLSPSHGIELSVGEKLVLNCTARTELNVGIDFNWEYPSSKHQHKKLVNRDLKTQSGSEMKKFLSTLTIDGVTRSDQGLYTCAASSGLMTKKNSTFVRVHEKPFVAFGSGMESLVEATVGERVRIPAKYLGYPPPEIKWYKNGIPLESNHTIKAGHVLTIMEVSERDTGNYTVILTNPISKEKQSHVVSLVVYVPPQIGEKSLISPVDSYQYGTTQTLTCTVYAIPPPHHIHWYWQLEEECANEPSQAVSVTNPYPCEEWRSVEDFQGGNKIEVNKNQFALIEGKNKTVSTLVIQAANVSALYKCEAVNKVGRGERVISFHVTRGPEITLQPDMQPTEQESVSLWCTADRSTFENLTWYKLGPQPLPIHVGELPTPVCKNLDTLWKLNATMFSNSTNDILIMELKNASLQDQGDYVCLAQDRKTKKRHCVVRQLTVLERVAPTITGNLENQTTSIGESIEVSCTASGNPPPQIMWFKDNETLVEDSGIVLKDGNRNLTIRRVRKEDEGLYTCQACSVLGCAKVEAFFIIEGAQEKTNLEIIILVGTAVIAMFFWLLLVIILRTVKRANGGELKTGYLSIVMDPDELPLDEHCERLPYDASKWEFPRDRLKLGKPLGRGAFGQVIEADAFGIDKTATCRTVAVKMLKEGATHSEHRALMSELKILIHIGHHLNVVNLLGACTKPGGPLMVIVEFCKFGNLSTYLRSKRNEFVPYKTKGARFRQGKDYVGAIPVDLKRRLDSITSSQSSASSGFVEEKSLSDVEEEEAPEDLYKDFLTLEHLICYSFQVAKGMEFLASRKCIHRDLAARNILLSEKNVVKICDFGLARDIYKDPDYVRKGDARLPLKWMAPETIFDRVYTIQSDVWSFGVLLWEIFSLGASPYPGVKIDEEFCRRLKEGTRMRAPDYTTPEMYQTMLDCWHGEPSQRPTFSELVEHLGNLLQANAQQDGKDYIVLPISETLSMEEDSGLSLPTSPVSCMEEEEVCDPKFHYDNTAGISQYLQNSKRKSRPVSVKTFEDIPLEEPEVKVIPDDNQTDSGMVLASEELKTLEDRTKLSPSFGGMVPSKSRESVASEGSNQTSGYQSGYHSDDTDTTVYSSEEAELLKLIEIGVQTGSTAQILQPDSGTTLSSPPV

| Compound | IC50 [1] [nM] | IC50 [2] [nM] | further results |
| --- | --- | --- | --- |
| O=C(Nc1ccc(Oc2ccnc3ccccc23)cc1)Nc1ccc(Cl)c(C(F)(F)F)c1 | 119 | – | – |
| COc1cc(Nc2ncc(F)c(Nc3cc(Cl)ccc3C(N)=O)n2)cc(OC)c1OC | – | 326 | – |
| CNC(=O)c1cc(Oc2ccc(NC(=O)Nc3cc(C(C)(C)C)on3)cc2)ccn1 | 17 | – | inhibition [3]: Dose-dependent effect; inhibition [4]: Active; inhibition [5]: Active; inhibition [6]: Active |
| COc1cc(Nc2ncc(F)c(Nc3cccc(C(N)=O)c3)n2)cc(OC)c1OC | – | 1130 | – |
| Nc1nccc(Oc2ccc(NC(=O)Nc3nc4ccccc4s3)cc2)n1 | 120 | – | – |
| Cc1cc(N)c2cc(Nc3nc(Nc4ccc(N5CCN(C)CC5)cc4)ncc3F)ccc2n1 | – | 13 | IC50 [7]: 510 nM; IC50 [8]: 3 nM; inhibition [9]: Active; inhibition [10]: Active |
| CNC(=O)c1cc(Oc2ccc(NC(=O)Nc3ccc(Cl)c(C(F)(F)F)c3)cc2)ccn1 | – | – | inhibition [4]: Active |
| CNC(=O)c1nccc(Oc2ccc(NC(=O)Nc3nc4ccccc4s3)cc2)n1 | 36 | – | – |
| N#Cc1cc(Oc2ccc(NC(=O)Nc3ccc(Cl)c(C(F)(F)F)c3)cc2)ccn1 | 214 | – | – |
| COc1cc(Nc2ncc(F)c(Nc3ccc4nc(C)cc(N)c4c3)n2)cc(OC)c1OC | – | 2960 | – |
| Nc1nccc(Oc2ccc(NC(=O)Nc3ccc(Cl)c(C(F)(F)F)c3)cc2)n1 | 23 | – | – |
